# Data taken from patent US20230265151A1, “GIP/GLP1 CO-AGONIST COMPOUNDS” (priority 2020, published 2023).
# Like-named read-outs stand apart in the source and are kept apart here. *1 amine or outer side, *2 acyl side, *3 side chain or, on linkers, in order; H or OH if unused. Where a SMILES comes first, the peptide text is derived from it. Side-chain parts run from the residue outwards. [ ]: non-standard residue; d: D form. The star is where a group is joined. αMePhe(2-F) = C[C@](N)(Cc1ccccc1F)C(=O)O; γGlu = O=C(O)[C@H](CCC(=O)[*:2])N[*:1]; αMeY = C[C@](N)(Cc1ccc(O)cc1)C(=O)O; 4Pal = N[C@@H](Cc1ccncc1)C(=O)O; αMeL = CC(C)C[C@](C)(N)C(=O)O; Lauroyl = CCCCCCCCCCCC(=O)*; Orn = NCCC[C@H](N)C(=O)O; AEEA = NCCOCCOCC(=O)O; Aib = CC(C)(N)C(=O)O
# How the values were obtained:
# Assay type in all cases: cell-based
# hGCGR = target: T1, hGCGR (Homo sapiens, UniProt P47871); assay: Functional cAMP formation (HTRF) in HEK-293 clonal cells expressing hGCGR, 0.1% bovine casein, without or with 1.0% human serum albumin; conditions: read-out: hGCGR EC50, nM (SEM, n)
# T1 construct: expressed in transfected cells
# T1 sequence (P47871 26-477): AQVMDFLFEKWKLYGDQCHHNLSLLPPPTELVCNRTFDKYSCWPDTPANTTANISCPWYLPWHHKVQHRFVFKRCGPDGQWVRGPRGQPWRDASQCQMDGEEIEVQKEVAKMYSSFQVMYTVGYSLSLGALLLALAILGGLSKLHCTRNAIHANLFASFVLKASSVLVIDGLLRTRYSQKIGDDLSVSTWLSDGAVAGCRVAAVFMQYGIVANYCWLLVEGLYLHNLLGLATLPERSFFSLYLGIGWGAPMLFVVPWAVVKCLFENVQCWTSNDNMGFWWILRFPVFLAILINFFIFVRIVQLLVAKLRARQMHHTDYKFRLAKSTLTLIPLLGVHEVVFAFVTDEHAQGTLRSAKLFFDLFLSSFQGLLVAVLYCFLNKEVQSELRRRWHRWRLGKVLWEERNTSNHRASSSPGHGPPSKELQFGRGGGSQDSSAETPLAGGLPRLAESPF
# Procedure, shortened: (§1)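 Cells were stimulated with peptide for 30 min at 37° C, then lysed in buffer carrying cAMP-d2 and anti-cAMP Eu3+-cryptate for a competitive HTRF read after at least 60 min at room temperature. The 665/620 nm ratio was converted to nM cAMP against a standard curve.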
# hGLP-1R = hGLP-1R (Homo sapiens, UniProt P43220); assay: Functional cAMP formation (HTRF) in HEK-293 clonal cells expressing hGLP-1R, 0.1% bovine casein, without or with 1.0% human serum albumin; parameters: expressed in transfected cells; conditions: for EC50: read-out: hGLP-1R EC50, nM (SEM, n); for Emax: read-out: hGLP-1R Emax, % ± SEM
# hGLP-1R, sequence (P43220 24-463): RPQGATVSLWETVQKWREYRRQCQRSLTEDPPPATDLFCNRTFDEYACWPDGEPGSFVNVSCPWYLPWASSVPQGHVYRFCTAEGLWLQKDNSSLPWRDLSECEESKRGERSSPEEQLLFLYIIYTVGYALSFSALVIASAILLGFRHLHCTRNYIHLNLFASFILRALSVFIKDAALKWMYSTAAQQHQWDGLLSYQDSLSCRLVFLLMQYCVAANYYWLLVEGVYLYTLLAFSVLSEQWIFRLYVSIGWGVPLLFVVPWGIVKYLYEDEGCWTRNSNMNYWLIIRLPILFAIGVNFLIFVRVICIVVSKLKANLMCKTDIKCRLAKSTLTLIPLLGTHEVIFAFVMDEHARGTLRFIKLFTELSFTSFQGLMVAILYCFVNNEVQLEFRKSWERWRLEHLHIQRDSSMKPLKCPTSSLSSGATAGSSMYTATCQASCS
# Procedure, shortened: as §1
# hGIPR = target: T2, hGIPR (Homo sapiens, UniProt P48546); assay: Functional cAMP formation (HTRF) in HEK-293 clonal cells expressing hGIPR, 0.1% bovine casein, without or with 1.0% human serum albumin; conditions: for EC50: geometric mean, read-out: hGIPR EC50, nM (SEM, n); for Emax: read-out: hGIPR Emax, % ± SEM
# T2 construct: expressed in transfected cells
# T2 sequence (P48546 22-466): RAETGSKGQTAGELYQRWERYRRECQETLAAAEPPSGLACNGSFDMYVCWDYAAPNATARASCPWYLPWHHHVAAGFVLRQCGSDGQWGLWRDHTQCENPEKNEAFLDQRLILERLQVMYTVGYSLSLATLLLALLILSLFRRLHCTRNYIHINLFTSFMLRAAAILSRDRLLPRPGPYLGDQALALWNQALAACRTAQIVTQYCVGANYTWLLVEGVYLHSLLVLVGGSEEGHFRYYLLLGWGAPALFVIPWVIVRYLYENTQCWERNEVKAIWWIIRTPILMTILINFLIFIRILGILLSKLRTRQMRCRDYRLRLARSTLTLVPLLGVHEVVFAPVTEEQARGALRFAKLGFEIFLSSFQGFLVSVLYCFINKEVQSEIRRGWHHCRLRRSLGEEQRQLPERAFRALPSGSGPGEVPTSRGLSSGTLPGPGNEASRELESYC
# Procedure, shortened: as §1
# [1] = 0.1% bovine casein and 1.0% human serum albumin, 37° C., geometric mean
# [2] = cAMP, 37° C., 0.1% bovine casein (no human serum albumin), geometric mean
# [3] = HEK293, cAMP, 37° C., 0.1% bovine casein, percent of maximal response to GLP-1(7-36)NH2, arithmetic mean
# [4] = 0.1% bovine casein and 1.0% human serum albumin, 37° C.
# [5] = cAMP, 37° C., 0.1% bovine casein (no human serum albumin)
# [6] = cAMP, incubated at 37° C., 0.1% bovine casein (no human serum albumin), geometric mean
# [7] = HEK293, percent of maximal response to GLP-1(7-36)NH2, 37° C., 0.1% bovine casein, arithmetic mean
# [8] = HEK293, 0.1% bovine casein and 1.0% human serum albumin, 37° C., percent of maximal response to GIP(1-42)NH2
# [9] = cAMP, 37° C., 0.1% bovine casein and 1.0% human serum albumin, geometric mean (SEM, n)
# [10] = HEK293, cAMP, 37° C., 0.1% bovine casein and 1.0% human serum albumin, percent of maximal response to GIP(1-42)NH2
Structure (SMILES),EC50 (hGCGR; [1]),EC50 (hGCGR; [2]),EC50 (hGLP-1R; [1]),Emax (hGLP-1R; [3]),EC50 (hGLP-1R; [2]),EC50 (hGIPR; [4]),EC50 (hGIPR; [5]),EC50 (hGCGR; [6]),Emax (hGLP-1R; [7]),EC50 (hGLP-1R; [6]),Emax (hGIPR; [8]),"Emax (hGIPR; HEK293, percent of maximal response to GIP(1-42)NH2, 37° C., 0.1% bovine casein, arithmetic mean)","EC50 (hGIPR; cAMP, incubated at 37° C., 0.1% bovine casein (no human serum albumin))","Emax (hGLP-1R; HEK293, 0.1% bovine casein and 1.0% human serum albumin, 37° C., percent of maximal response to GLP-1(7-36)NH2)",EC50 (hGCGR; [9]),EC50 (hGLP-1R; [9]),Emax (hGIPR; [10])
CCCCCCCCCCCC(=O)N[C@@H](CCC(=O)NCCOCCOCC(=O)NCCOCCOCC(=O)NCCCC[C@H](NC(=O)[C@H](CCCN)NC(=O)[C@H](CC(=O)O)NC(=O)[C@H](CC(C)C)NC(=O)[C@](C)(CC(C)C)NC(=O)[C@@H](NC(=O)[C@H](CO)NC(=O)[C@H](Cc1ccncc1)NC(=O)[C@H](CC(=O)O)NC(=O)[C@H](CO)NC(=O)[C@@H](NC(=O)[C@](C)(Cc1ccccc1F)NC(=O)[C@@H](NC(=O)CNC(=O)[C@H](CCC(=O)O)NC(=O)C(C)(C)NC(=O)[C@@H](N)Cc1ccc(O)cc1)[C@@H](C)O)[C@@H](C)O)[C@@H](C)CC)C(=O)N[C@@H](C)C(=O)N[C@@H](CCC(N)=O)C(=O)NC(C)(C)C(=O)N[C@@H](CCCCNC(=O)COCCOCCNC(=O)COCCOCCNC(=O)CC[C@H](NC(=O)CCCCCCCCCCC)C(=O)O)C(=O)N[C@@H](Cc1ccccc1)C(=O)N[C@H](C(=O)N[C@H](CCC(=O)O)C(=O)N[C@@](C)(Cc1ccc(O)cc1)C(=O)N[C@@H](CC(C)C)C(=O)N[C@H](C(=O)N[C@@H](CCC(=O)O)C(=O)NCC(=O)NCC(N)=O)[C@@H](C)CC)[C@@H](C)CC)C(=O)O [Example 295] (H-Y[Aib]EGT[αMePhe(2-F)]TSD[4Pal]SI[αMeL]LD[Orn]K([AEEA-AEEA-γGlu-Lauroyl])AQ[Aib]K([AEEA-AEEA-γGlu-Lauroyl])FI[dE][αMeY]LIEGG-NH2; N-terminus assumed),> 9950 nM,> 9950 nM,10.4 nM,109%,0.167 nM,1.09 nM,0.0141 nM,,,,,,,,,,
CCCCCCCCCCCC(=O)N[C@@H](CCC(=O)NCCOCCOCC(=O)NCCOCCOCC(=O)NCCCC[C@H](NC(=O)CNC(=O)CNC(=O)[C@H](CCC(=O)O)NC(=O)[C@@H](NC(=O)[C@H](CC(C)C)NC(=O)[C@](C)(Cc1ccc(O)cc1)NC(=O)[C@@H](CCC(=O)O)NC(=O)[C@@H](NC(=O)[C@](C)(Cc1ccccc1)NC(=O)[C@H](CCC(=O)O)NC(=O)C(C)(C)NC(=O)[C@H](CCC(N)=O)NC(=O)[C@H](C)NC(=O)[C@H](CCCCNC(=O)COCCOCCNC(=O)COCCOCCNC(=O)CC[C@H](NC(=O)CCCCCCCCCCC)C(=O)O)NC(=O)[C@H](CCCN)NC(=O)[C@H](CC(=O)O)NC(=O)[C@H](CC(C)C)NC(=O)[C@](C)(CC(C)C)NC(=O)[C@@H](NC(=O)[C@H](CO)NC(=O)[C@H](Cc1ccncc1)NC(=O)[C@H](CC(=O)O)NC(=O)[C@H](CO)NC(=O)[C@@H](NC(=O)[C@](C)(Cc1ccccc1)NC(=O)[C@@H](NC(=O)CNC(=O)[C@H](CCC(=O)O)NC(=O)C(C)(C)NC(=O)[C@@H](N)Cc1ccc(O)cc1)[C@@H](C)O)[C@@H](C)O)[C@@H](C)CC)[C@@H](C)CC)[C@@H](C)CC)C(=O)N[C@@H](CO)C(=O)N[C@@H](CO)C(=O)NCC(=O)N[C@@H](C)C(=O)N1CCC[C@H]1C(=O)N1CCC[C@H]1C(=O)N1CCC[C@H]1C(=O)N[C@@H](CO)C(N)=O)C(=O)O [Example 173],> 9950 nM,,29.7 nM,,,1.24 nM,,> 9950 nM,89.9 ± 2.72%,0.343 nM,92.9 ± 6.91%,87.8 ± 6.22%,0.0155 nM,,,,
CC[C@H](C)[C@H](NC(=O)[C@H](CCCN)NC(=O)[C@H](CC(=O)O)NC(=O)[C@H](CC(C)C)NC(=O)[C@](C)(CC(C)C)NC(=O)[C@@H](NC(=O)[C@H](CO)NC(=O)[C@H](Cc1ccncc1)NC(=O)[C@H](CC(=O)O)NC(=O)[C@H](CO)NC(=O)[C@@H](NC(=O)[C@](C)(Cc1ccccc1F)NC(=O)[C@@H](NC(=O)CNC(=O)[C@H](CCC(=O)O)NC(=O)C(C)(C)NC(=O)[C@@H](N)Cc1ccc(O)cc1)[C@@H](C)O)[C@@H](C)O)[C@@H](C)CC)C(=O)N[C@@H](C)C(=O)N[C@@H](CCC(N)=O)C(=O)NC(C)(C)C(=O)N[C@@H](CCCCNC(=O)COCCOCCNC(=O)COCCOCCNC(=O)COCCOCCNC(=O)CC[C@H](NC(=O)CCCCCCCCCCCCC(=O)O)C(=O)O)C(=O)N[C@@H](Cc1ccccc1)C(=O)N[C@H](C(=O)N[C@H](CCC(=O)O)C(=O)N[C@@](C)(Cc1ccc(O)cc1)C(=O)N[C@@H](CC(C)C)C(=O)N[C@H](C(=O)N[C@@H](CCCCNC(=O)COCCOCCNC(=O)COCCOCCNC(=O)COCCOCCNC(=O)CC[C@H](NC(=O)CCCCCCCCCCCCC(=O)O)C(=O)O)C(=O)NCC(=O)NCC(=O)N1CCC[C@H]1C(=O)N[C@@H](CO)C(=O)N[C@@H](CO)C(=O)NCC(=O)N[C@@H](C)C(=O)N1CCC[C@H]1C(=O)N1CCC[C@H]1C(=O)N1CCC[C@H]1C(=O)N[C@@H](CO)C(N)=O)[C@@H](C)CC)[C@@H](C)CC [Example 227],> 9950 nM,,,,,,,> 9950 nM,96.1%,1.22 nM,76.1%,,,111%,,,
CCCCCCCCCCCC(=O)N[C@@H](CCC(=O)NCCOCCOCC(=O)NCCOCCOCC(=O)NCCCC[C@H](NC(=O)[C@H](CCCN)NC(=O)[C@H](CC(=O)O)NC(=O)[C@H](CC(C)C)NC(=O)[C@](C)(CC(C)C)NC(=O)[C@@H](NC(=O)C(C)(C)NC(=O)[C@H](Cc1ccncc1)NC(=O)[C@H](CC(=O)O)NC(=O)[C@H](CO)NC(=O)[C@@H](NC(=O)[C@](C)(Cc1ccccc1F)NC(=O)[C@@H](NC(=O)CNC(=O)[C@H](CCC(=O)O)NC(=O)C(C)(C)NC(=O)[C@@H](N)Cc1ccc(O)cc1)[C@@H](C)O)[C@@H](C)O)[C@@H](C)CC)C(=O)N[C@@H](C)C(=O)N[C@@H](CCC(N)=O)C(=O)NC(C)(C)C(=O)N[C@@H](CCCCNC(=O)COCCOCCNC(=O)COCCOCCNC(=O)CC[C@H](NC(=O)CCCCCCCCCCC)C(=O)O)C(=O)N[C@@H](Cc1ccccc1)C(=O)N[C@H](C(=O)N[C@H](CCC(=O)O)C(=O)N[C@@](C)(Cc1ccc(O)cc1)C(=O)N[C@@H](CC(C)C)C(=O)N[C@H](C(=O)N[C@@H](CCCN)C(=O)NCC(=O)NCC(=O)N1CCC[C@H]1C(=O)N[C@@H](CO)C(=O)N[C@@H](CO)C(=O)NCC(=O)N[C@@H](C)C(=O)N1CCC[C@H]1C(=O)N1CCC[C@H]1C(=O)N1CCC[C@H]1C(=O)N[C@@H](CO)C(N)=O)[C@@H](C)CC)[C@@H](C)CC)C(=O)O [Example 413],,> 9950 nM,,96.9%,0.234 nM,,0.0146 nM,,,,,,,,> 9950 nM,5.47 nM,91.8%
CC[C@H](C)[C@H](NC(=O)[C@H](CC(C)C)NC(=O)[C@](C)(Cc1ccc(O)cc1)NC(=O)[C@@H](CCC(=O)O)NC(=O)[C@@H](NC(=O)[C@H](Cc1ccccc1)NC(=O)[C@H](CCC(=O)O)NC(=O)C(C)(C)NC(=O)[C@H](CCC(N)=O)NC(=O)[C@H](C)NC(=O)[C@H](CCCCNC(=O)COCCOCCNC(=O)COCCOCCNC(=O)CCCCCCCCCCCCC(=O)O)NC(=O)[C@H](CCCN)NC(=O)[C@H](CC(=O)O)NC(=O)[C@H](CC(C)C)NC(=O)[C@](C)(CC(C)C)NC(=O)[C@@H](NC(=O)C(C)(C)NC(=O)[C@H](Cc1ccncc1)NC(=O)[C@H](CC(=O)O)NC(=O)[C@H](CO)NC(=O)[C@@H](NC(=O)[C@](C)(Cc1ccccc1F)NC(=O)[C@@H](NC(=O)CNC(=O)[C@H](CCC(=O)O)NC(=O)C(C)(C)NC(=O)[C@@H](N)Cc1ccc(O)cc1)[C@@H](C)O)[C@@H](C)O)[C@@H](C)CC)[C@@H](C)CC)C(=O)N[C@@H](CCCCNC(=O)COCCOCCNC(=O)COCCOCCNC(=O)CCCCCCCCCCCCC(=O)O)C(=O)NCC(=O)NCC(=O)N1CCC[C@H]1C(=O)N[C@@H](CO)C(=O)N[C@@H](CO)C(=O)NCC(=O)N[C@@H](C)C(=O)N1CCC[C@H]1C(=O)N1CCC[C@H]1C(=O)N1CCC[C@H]1C(=O)N[C@@H](CO)C(N)=O [Example 387],,> 9950 nM,,,0.32 nM,,0.0137 nM,,,,,,,,> 9950 nM,,93%
